# Results published in EP0258175A2, “5-hetero- or aryl-substituted-imidazo[2,1-a]isoquinolines” (SANDOZ AG, priority 1986, dated 1988).
# Counter-ions that a name gives are not always drawn.
# Key:
# [1] = biological target: T1, Human Platelet PAF Receptor (Homo sapiens, UniProt P25105); experiment: Human Platelet PAF Receptor Assay test (Test A): inhibition of specific binding of [³H]-PAF to platelets; conditions: inhibition of specific binding of [³H]-PAF to human platelets, read-out: IC₅₀
# T1 construct: from tissue; host or cells: washed human platelets from donor blood
# T1 sequence (P25105 whole entry): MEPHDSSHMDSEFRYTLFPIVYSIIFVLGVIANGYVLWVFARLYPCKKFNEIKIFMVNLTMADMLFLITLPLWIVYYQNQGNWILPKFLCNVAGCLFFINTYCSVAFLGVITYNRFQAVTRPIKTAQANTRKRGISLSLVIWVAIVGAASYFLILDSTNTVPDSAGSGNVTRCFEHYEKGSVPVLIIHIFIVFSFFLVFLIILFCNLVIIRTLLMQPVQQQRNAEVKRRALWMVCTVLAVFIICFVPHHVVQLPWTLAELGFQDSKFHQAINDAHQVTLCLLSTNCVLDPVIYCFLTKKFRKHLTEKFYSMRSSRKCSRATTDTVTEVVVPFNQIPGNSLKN
# Method: The compounds of formula I are indicated for use as platelet activating factor receptor antagonists as indicated by their ability to inhibit specific binding of [³H]-PAF to platelets according to the Human Platelet PAF Receptor Assay test (Test A) as follows: Human blood is obtained by venipuncture of healthy, human donors into an anti-coagulant mixture containing 3.15% of trisodium citrate and 20 µg/ml of Prostaglandin I₂ (PGI₂) in a ratio of blood to anti-coagulant of 9:1. Platelet rich plasma (PRP) is prepared by centrifugation (250 x g) of the blood for 20 minutes at room temperature. […] All of the tests are conducted in duplicate and each of the test compounds is evaluated at concentrations of 100, 50, 1 and 0.1 µM. […] An additional 2 ml of Scintiverse II is then added to the vials and, after mixing, the vials are counted for 1 minute in a liquid scintillation spectrometer. The amount of specific binding is calculated as the difference in cpm between the total bound [³H]-PAF and non-specifically bound [³H]-PAF. The percent inhibition of specific binding is determined by dividing the cpm specifically bound in the presence of the test compound by the cpm specifically bound in total, multiplying by 100 and then subtracting from 100. […]
# [2] = system: PAF-mediated extravasation; experiment: PAF-induced Extravasation test (Test C), hemoconcentration (hematocrit); format: in vivo; conditions: Cavia porcellus, po, guinea pigs, PAF 100 ng/kg i.v., inhibition of increase in hematocrit, read-out: ED₅₀
# Method: Still further, the compounds of formula I are indicated for use as inhibitors of PAF-mediated extravasation (the extrusion of plasma from the lumen of the blood vessels into the vessel wall and surrounding tissues) measured as a function of hemoconcentration according to the PAF-induced Extravasation test(Test C) as follows: Male guinea pigs, weighing between 300 and 400 g, are anesthetized, after which time a femoral catheter is inserted. The test compound is administered either orally or parenterally one hour up to 4 hours prior to the introduction of PAF. The PAF (C₁₈-Sandoz, Hanover) is dissolved in Tris-Tyrode's bovine serum albumin buffer and administered intravenously (jugular) at 100 ng/kg. […] The tubes are then centrifuged and the percent of packed red blood cells (hematocrit) is measured (PAF induces a maximal increase in hematocrit at 5 to 7 minutes subsequent to the injection of PAF). The percent increase in hematocrit over the value prior to the injection of PAF is calculated. The hemacrotit values obtained with the test compound are compared to the hemoconcentration values obtained with PAF alone and are expressed as percent inhibition of percent increase in hematocrit.
# [3] = system: PAF-mediated bronchoconstriction; experiment: PAF-induced Pulmonary Inflation Pressure (PIP) Increase test (Test B); format: in vivo; conditions: Cavia porcellus, po, guinea pigs, PAF 100 ng/kg i.v., maximal PIP increase, read-out: ED₅₀
# Method: Furthermore, in view of their potential as PAF receptor antagonists, the compounds of formula I are indicated for use as inhibitors of PAF-mediated bronch oconstriction, which property was evaluated by the PAF-induced Pulmonary Inflation Pressure (PIP) Increase test (Test B) as follows:
# Male guinea pigs, weighing between 300 and 400 g, are anesthetized, after which time trachea tube, carotid and jugular cathers are inserted. The test animal is then force ventilated employing a small animal Harvard respirator and the resistance to lung inflation (PIP) is measured utilizing a pressure transducer and recorder. The test compound is administered either orally at 30 minutes up to 4 hours prior to or parenterally e.g. intravenously (jugular) etc. at 5 minutes up to 4 hours prior to the introduction of PAF. […] Any blood pressure measurements taken are recorded from a transducer attached to the carotid catheter. […] A reading at 15 minutes after the administration of PAF is termed the endpoint PIP. The effect of the test compound on the PIP response is determined by the difference between the percent increase in maximal PIP over baseline for the test animal to which has been administered PAF and the test compound compared to the test animal to which only PAF has been administered.
# Meth A sarcoma cells = experiment: Meth A fibrosarcoma implant in mice (Test F): tumor growth and survivors; format: in vivo; conditions: 50µg per day p.o. for 28 days, ten CBF₁ mice implanted with 7.3 x 10⁶ Meth A sarcoma cells
# Source text: Test F) Meth A fibrosarcoma cells were induced in BALB/C mice by administering methylcholanthrene according to the procedure of Old, et al. (L.J. Old, E.A. Boyse, D.A. Clarke, and E. Carswell, Ann. N.Y. Acad. Sci., 101, 80 (1962). These tumor cells were harvested from the peritoneal cavity 10 to 12 days after administration of methylcholanthrene. Ten CBF₁ mice of 10-12 week age were each implanted with 7.3 x 10⁶ Meth A sarcoma cells to serve as control. A second group of ten CBF₁ mice were each implanted with 7.3 x 10⁶ Meth A sarcoma cells and on day one after implant each mouse was treated p.o. with 5-50µg of the test compound per day for a total of twenty or twenty-seven days. Tumor growth and survivors were assayed on days 7, 14, 21 and 28 after tumor implantation.
# Abelson 8.1 tumor cells [4] = experiment: Influence on Cytotoxicity of ET-18-OCH₃ test (IC-ET test) (Test E); format: cell-based, mice; conditions: at 5 µg, macrophages pre-incubated with 10µg ET-18-OCH₃, values recorded after 72 hours, ET-18-OCH₃ alone set at 100%
# Method: Test E) Influence on Cytotoxicity of ET-18-OCH₃ test (IC-ET test).
# Bone marrow cell macrophages (10⁵/well)obtained from [BALB/CX57/BL₆]Fl mice were incubated with 10µg of 1-octadecyl-2-methoxy-3-phosphoryl choline (ET-18-OCH₃) for 24 hours in flat bottom microtiter plates (Nunc Roskieide,Denmark), after which time they are centrifuged and washed once. Abelson 8.1 tumor cells in DMEM + 10% fetal calf serum and 1,3 and 5ug of the test compound were then added to the plates. With the cytotoxicity of ET-18-OCH₃ (10ug) alone set at 100%, the inhibition or enhancement of the cytotoxic effect, as measured by an alkaline phosphatase assay, was determined and values recorded after 72 hours for 1,3 and 5ug of the test substance.
# Abelson 8.1 tumor cells [5] = experiment: Tumor cell cytotoxicity Test (TCCT) (Test D), alkaline phosphatase readout; format: cell-based; conditions: at 5µg
# Method: Test D) Tumor cell cytotoxicity Test (TCCT).
# In flat bottom microtiter plates (Nunc Roskieide, Denmark) were placed Abelson 8.1 tumor cells in DMEM + 10% fetal calf serum and the tumor cell-containing plates were incubated with 1,3, and 5µg of the test compound for a period of 6 to 72 hours. The number of viable tumor cells present was determined by measuring the alkaline phosphatase in the following manner. The tumor cell plates were centrifuged (500 x g.) for ten minutes and the supernatant flicked off. Without further washing, 100 ul of buffer containing 20 ul of diethanolamine, 2uM of MgCl₂ · 6H₂O, 2.5 uM of p-nitrophenylphosphate and 10 mg Triton X-100 were added. The samples were incubated for 60 minutes at room temperature and the enzymatic reaction was terminated by the addition of 100 ul of 0.5N NaOH. The absorbance was then measured at […] using a Titertek Multiskan apparatus.
smiles,measurement,setting,value
"COc1cc(CCc2ccc(C3=Cc4ccccc4C4=NCCN34)cc2)cc(OC)c1OC.Cl [Example 7E, 5-[4ʹ-(3,4,5-trimethoxyphenylethyl)phenyl]-2,3-dihydroimidazo [2,1-a]isoquinoline hydrochloride]",IC50,[1],0.06 µM
same,ED50,[2],4.2 mg/kg
same,ED50,[3],5 mg/kg
"C1=C(c2ccc(CN3CCCCC3)cc2)N2CCN=C2c2ccccc21.Cl.Cl [Example 3N, 5-(4ʹ-piperidinomethylphenyl)-2,3-dihydroimidazo[2,1-a]isoquinoline dihydrochloride]",Tumor growth,Meth A sarcoma cells,no evidence of the presence of any tumors
same,survivors,Meth A sarcoma cells; none of the control group survived,all of the animals
"C=CCN(CC=C)Cc1ccc(C2=Cc3ccccc3C3=NCCN23)cc1 [Example 3BB, 5-(4ʹ-diallylaminomethylphena]isoquinoline dihydrochloride]",inh.,Abelson 8.1 tumor cells [4],97%
same,inh.,Abelson 8.1 tumor cells [5],99%
